Measurements reported in US20010003848A1, “DNA SEQUENCES FOR AMMONIUM TRANSPORTER, PLASMIDS, BACTERIA, YEASTS, PLANT CELLS AND PLANTS CONTAINING THE TRANSPORTER” (priority 1993, published 2001).
Where “and” joins values, the source holds several entries; their conditions need not be identical. Equal values may be shown once. Read-outs that look alike come from different tables or passages of the source.

Experiments:
[1] = system: yeast line 26972c::pFL61-MEP-a; assay type: cell-based, Saccharomyces cerevisiae; settings: 10 mM glucose; for Uptake of ^14C-methylamine in presence of carbonyl cyanide m-chlorophenylhydrazone: 26972c::pF161 MEP-a +CCCP 10 pM; for Uptake of ^14C-methylamine in presence of 0.1 mM dinitrophenol (DNP): 26972c::pFL61-MEP-a +DNP 0.1 mM; for Uptake of ^14C-methylamine: 26972c::pFL61-MEP-a, two independent series
Experimental: (§1) The yeast lines 26972c::pFL61, 26972c::pFL61-MEP-a and their starting lines S1278b (Dubois & Grenson, 1979, Mol Gen Genet 175: 67-76, MEP-1/MEP-2 ura3) were grown in liquid medium with 1.7 g yeast nitrogen base without ammonium and without amino acids (Difco), 20 g agarose, 1% glucose (w/v), 0.5 mg/l proline until the culture reached the logarithmic phase. After centrifuging of each 25 ml of the culture the cells were washed with 10 mM phosphate pH 7 or pH 4 and taken up in 1.5 ml 10 mM phosphate buffer. Ten minutes before starting the transport measurements, it was made up to an end concentration of 10 mM glucose. […] of the suspension was added to a solution of 10 mM phosphate pH 4 or 7, 100 μM unlabelled methylamine and 5 μCi ^14C-labelled methylamine (0.1 mCi/1.9 μmol) (end concentrations). The uptake of the methylamine was measured after 10, 60, 120 and 180 seconds. For this, to 50 μl of starting material was taken and in a volume of 1 ml H2O+3 mM unlabelled methylamine absorbed on a glass fibre filter. After washing with 10 ml H2O+3 mM unlabelled methylamine the amount of ^14C-labelled methylamine taken up was measured by scintillation (Table Ia and Ib).

[2] = system: yeast strain Σ1278b; test: Uptake of ^14C-methylamine in yeast strain Σ1278b; assay type: cell-based, Saccharomyces cerevisiae; settings: 10 mM glucose; for Uptake of ^14C-methylamine in presence of carbonyl cyanide m-chlorophenylhydrazone (CCCP): Σ1278b +CCCP 10 pM; for Uptake of ^14C-methylamine in presence of 0.1 mM dinitrophenol (DNP): Σ1278b +DNP 0.1 mM
Experimental: as §1

[3] = system: Saccharomyces cerevisiae; settings: cited from earlier work
[4] = system: yeast strain 26972c::pFL61; test: Uptake of ^14C-methylamine in yeast strain 26972c::pFL61 (zero control, plasmid without cDNA insertion); assay type: cell-based, Saccharomyces cerevisiae; settings: 10 mM glucose
Experimental: as §1

N#CC(C#N)=NNc1cccc(Cl)c1 [CCCP, carbonyl cyanide m-chlorophenylhydrazone]
Uptake of ^14C-methylamine in presence of carbonyl cyanide m-chlorophenylhydrazone ([1]; pH = 7, 10 sec): 484.60 cpm
Uptake of ^14C-methylamine in presence of carbonyl cyanide m-chlorophenylhydrazone ([1]; pH = 7, 60 sec): 1407.00 cpm
Uptake of ^14C-methylamine in presence of carbonyl cyanide m-chlorophenylhydrazone ([1]; pH = 7, 120 sec): 2597.92 cpm
Uptake of ^14C-methylamine in presence of carbonyl cyanide m-chlorophenylhydrazone ([1]; pH = 7, 180 sec): 3620.36 cpm
Uptake of ^14C-methylamine in presence of carbonyl cyanide m-chlorophenylhydrazone (CCCP) ([2]; pH = 7, 10 sec): 173.20 cpm
Uptake of ^14C-methylamine in presence of carbonyl cyanide m-chlorophenylhydrazone (CCCP) ([2]; pH = 7, 60 sec): 316.80 cpm
Uptake of ^14C-methylamine in presence of carbonyl cyanide m-chlorophenylhydrazone (CCCP) ([2]; pH = 7, 120 sec): 460.40 cpm
Uptake of ^14C-methylamine in presence of carbonyl cyanide m-chlorophenylhydrazone (CCCP) ([2]; pH = 7, 180 sec): 608.00 cpm

O=[N+]([O-])c1ccc(O)c([N+](=O)[O-])c1 [DNP]
Uptake of ^14C-methylamine in presence of 0.1 mM dinitrophenol (DNP) ([1]; pH = 7, 10 sec): 378.00 cpm
Uptake of ^14C-methylamine in presence of 0.1 mM dinitrophenol (DNP) ([1]; pH = 7, 60 sec): 1349.40 cpm
Uptake of ^14C-methylamine in presence of 0.1 mM dinitrophenol (DNP) ([1]; pH = 7, 120 sec): 2794.44 cpm
Uptake of ^14C-methylamine in presence of 0.1 mM dinitrophenol (DNP) ([1]; pH = 7, 180 sec): 2794.44 cpm
Uptake of ^14C-methylamine in presence of 0.1 mM dinitrophenol (DNP) ([2]; pH = 7, 10 sec): 167.20 cpm
Uptake of ^14C-methylamine in presence of 0.1 mM dinitrophenol (DNP) ([2]; pH = 7, 60 sec): 386.00 cpm
Uptake of ^14C-methylamine in presence of 0.1 mM dinitrophenol (DNP) ([2]; pH = 7, 120 sec): 706.80 cpm
Uptake of ^14C-methylamine in presence of 0.1 mM dinitrophenol (DNP) ([2]; pH = 7, 180 sec): 906.00 cpm

Cl.N [NH4Cl]
inhibition of methylamine-uptake functions ([3]; both transport functions of Saccharomyces): inhibitable
Uptake of ^14C-methylamine in presence of 0.5 mM NH4Cl ([4]; 26972c::pFL61, pH = 7, 10 sec): 271.60 cpm
Uptake of ^14C-methylamine in presence of 0.5 mM NH4Cl ([4]; 26972c::pFL61, pH = 7, 60 sec): 795.80 cpm
Uptake of ^14C-methylamine in presence of 0.5 mM NH4Cl ([4]; 26972c::pFL61, pH = 7, 120 sec): 1388.20 cpm
Uptake of ^14C-methylamine in presence of 0.5 mM NH4Cl ([4]; 26972c::pFL61, pH = 7, 180 sec): 1773.00 cpm
Uptake of ^14C-methylamine in presence of 0.5 mM NH4Cl ([2]; 1278b, pH = 7, 10 sec): 356.60 cpm
Uptake of ^14C-methylamine in presence of 0.5 mM NH4Cl ([2]; 1278b, pH = 7, 60 sec): 885.60 cpm
Uptake of ^14C-methylamine in presence of 0.5 mM NH4Cl ([2]; 1278b, pH = 7, 120 sec): 1237.80 cpm
Uptake of ^14C-methylamine in presence of 0.5 mM NH4Cl ([2]; 1278b, pH = 7, 180 sec): 1597.40 cpm

CN [^14C-methylamine, methylamine]
maximum speed Vmax ([3]; high affinity transporter with low capacity): 20 nmol/min per mg cells (dry weight)
Km ([3]; high affinity transporter with low capacity, read-out: Km value): 250 µM
Vmax ([3]; low affinity system with high capacity): 50 nmol/min per mg cells
Km ([3]; low affinity system with high capacity, read-out: Km): 2000 µM
Vmax ([3]; low affinity system with medium capacity): 33 nmol/min per mg cells
Km ([3]; low affinity system with medium capacity, read-out: Km): 20000 µM
Uptake of ^14C-methylamine ([1]; pH = 4, 10 sec): 204.80 cpm and 214.80 cpm
Uptake of ^14C-methylamine ([1]; pH = 4, 60 sec): 283.80 cpm and 345.60 cpm
Uptake of ^14C-methylamine ([1]; pH = 4, 120 sec): 434.40 cpm and 594.60 cpm
Uptake of ^14C-methylamine ([1]; pH = 4, 180 sec): 479.60 cpm and 842.20 cpm
Uptake of ^14C-methylamine ([1]; pH = 7, 10 sec): 302.80 cpm and 352.20 cpm
Uptake of ^14C-methylamine ([1]; pH = 7, 60 sec): 1247.80 cpm and 1292.20 cpm
Uptake of ^14C-methylamine ([1]; pH = 7, 120 sec): 3152.50 cpm and 3478.28 cpm
Uptake of ^14C-methylamine ([1]; pH = 7, 180 sec): 8490.83 cpm and 6099.39 cpm
Uptake of ^14C-methylamine ([4]; 26972c::pFL61, pH = 4, 10 sec, two independent series): 220.20 cpm and 117.20 cpm
Uptake of ^14C-methylamine ([4]; 26972c::pFL61, pH = 4, 60 sec, two independent series): 200.60 cpm and 138.60 cpm
Uptake of ^14C-methylamine ([4]; 26972c::pFL61, pH = 4, 120 sec, two independent series): 284.80 cpm and 197.40 cpm
Uptake of ^14C-methylamine ([4]; 26972c::pFL61, pH = 4, 180 sec, two independent series): 317.60 cpm and 285.60 cpm
Uptake of ^14C-methylamine ([4]; 26972c::pFL61, pH = 7, 10 sec): 202.20 cpm
Uptake of ^14C-methylamine ([4]; 26972c::pFL61, pH = 7, 60 sec): 291.80 cpm
Uptake of ^14C-methylamine ([4]; 26972c::pFL61, pH = 7, 120 sec): 524.80 cpm
Uptake of ^14C-methylamine ([4]; 26972c::pFL61, pH = 7, 180 sec): 797.80 cpm
Uptake of ^14C-methylamine ([2]; 1278b, pH = 7, 10 sec): 469.60 cpm
Uptake of ^14C-methylamine ([2]; 1278b, pH = 7, 60 sec): 1022.80 cpm
Uptake of ^14C-methylamine ([2]; 1278b, pH = 7, 120 sec): 6176.36 cpm
Uptake of ^14C-methylamine ([2]; 1278b, pH = 7, 180 sec): 16826.67 cpm
Uptake of ^14C-methylamine ([2]; Σ1278b, pH = 4, 10 sec): 289.00 cpm
Uptake of ^14C-methylamine ([2]; Σ1278b, pH = 4, 60 sec): 1151.20 cpm
Uptake of ^14C-methylamine ([2]; Σ1278b, pH = 4, 120 sec): 19605.46 cpm
Uptake of ^14C-methylamine ([2]; Σ1278b, pH = 4, 180 sec): 32651.43 cpm
